The target in test [1] is T1, fibrin-gel bound thrombin (Homo sapiens, UniProt P00734).
T1 construct: Here prothrombin is converted to thrombin; purchased SIGMA
As to the kind of experiment: Inhibition of thrombin bound to fibrin-gel (methods M4, M5). The format is biochemical. As to conditions: Tos-Gly-Pro-Arg-pNA substrate. How it is done:
The plasma clot was obtained by the recalcification of platelet-rich human citrate plasma and fibrin gel by the coagulation of human fibrinogen with human thrombin Z-D-Arg-Gly-Arg-pNA and Tos Gly-Pro-Arg-pNA were used as substrates for measuring the activity of factor Xa and thrombin (methods M1-M5).
Preparation of Fibrin-Gel
a) 200 μL of 6 mg/mL human fibrinogen (SIGMA), 25 μL of 25 NIH U/mL human thrombin (SIGMA) and 40 μL of 100 mM calcium chloride solution are placed in each reaction vessel and the mixtures are stored for one hour at 20-22° C. The fibrin formed is rinsed mildly with 3×2 ml of isotonic saline solution followed by sedimentation to remove the thrombin content of the solution. The efficacy of rinsing is controlled by the process described in Method M1, point c).
Assay of the Inhibition of Thrombin Bound to Fibrin-Gel
a) 0.1-1.0-10 and 100 μg/ml solutions are prepared with Hepes/NaCl buffer (0.01 M Hepes and 0.1 M sodium chloride, pH=7.4).
b) Thereafter the procedure described in Method M3, point b) is followed.

The next test concerns the target T2, thrombin (Homo sapiens, UniProt P00734).
T2 construct: The isolated active factor (e.g. thrombin, fXa) and its chromogen or fluorogen peptide-amide substrate are reacted
As to the kind of experiment: Inhibition of the amidolytic effect of thrombin on Tos-Gly-Pro-Arg-pNA. As to conditions: Tos-Gly-Pro-Arg-pNA substrate. The format is biochemical. How it is done: Anticoagutant activity (i.e. inhibition of the proteolytic reactions in the process) is measured by anticoagulant tests, e.g. by the thrombin time (TT), activated partial thromboplastin time (APTT) and prothrombin time (PT) tests [E. J. W. Bovie et al; Mayo Clinic Laboratory Manual of Hemostasis; W. B. Sanuders Co., Philadelphia (1971)]. Plasma, inhibited in spontaneous coagulation, e.g. citrate-plasma, is made to coagulate and the required coagulation time is measured. Upon the action of anticoagulants the coagulation time is prolonged proportionally to the inhibition of the reaction(s) in the process. The anticoagulant effect can be characterized by the substance concentration required to double the coagulation time compared to the control (IC50). The effect of anticoagulants on individual coagulant proteases is measured by the amidolytic method [R. Lottenberg et al., Methods in Enzymol. 80, 341 (1981); G. Cleason, Blood Coagulation and Fibrinolysis 5, 411 (1994)]. The isolated active factor (e.g. thrombin, fXa) and its chromogen or fluorogen peptide-amide substrate are reacted in the presence or absence of the inhibitor, resp. The enzyme inhibiting action is characterized by the inhibitory constant (IC50) measured during amidolysis.
In the case of D-MePhe-Pro-Arg-H (C1) the concentration doubling the clotting time in the TT, APTT and PT tests amounted to 87, 622 and 2915 nM, resp.

In test [1], `N=C(N)NCCC[C@@H](C=O)NC(=O)[C@H]1CCCN1C(=O)C(O)C1CCCCCC1.N=C(N)NCCC[C@@H](C=O)NC(=O)[C@H]1CCCN1C(=O)C(O)C1CCCCCC1.O=S(=O)(O)O` (stereo partly drawn) [Compound 1, D-2-Cycloheptyl-2-hydroxyacetyl-L-prolyl-L-arginine aldehyde hemisulfate] had an IC50 of 210 nM.
`CN[C@H](Cc1ccccc1)C(=O)N1CCC[C@H]1C(=O)N[C@H](C=O)CCCNC(=N)N` [Compound C1, D-MePhe-Pro-Arg-H]: the figures for the half-maximal inhibitory concentration (IC50) (in test [1]; at thrombin) were 300 nM and 2 nM, respectively.

These data come from patent publication US6121241A, “Anticoagulant peptide aldehyde derivatives” (Gyogyszerkutato Intezet Kft., priority 1996, dated 2000).
